Patent US10159676B2, “Induction of tumor hypoxia for cancer therapy” (Virginia Commonwealth University, priority 2008, dated 2018)

Experiments:
[1] = system: UCI tumor xenograft; test: Microvascular density by anti-CD34 immunohistochemistry and H & E staining of tumor and normal organs; assay type: in vivo, nude mice
Protocol: FIGS. 2A-B. Stilbene 5c treatment decreases microvascular density in tumor but not in normal organs. Nude mice with UCI tumor xenograft were treated with 10% DMSO or stilbene 5c at 50 mg/kg intraperitoneally. Mice were sacrificed at 4 hours after injection, and various organs and tumor were harvested for fixation and standard hematoxylin and eosin (H & E) staining. Immunohistochemical staining of each section was performed with anti-CD34 antibody to quantify the microvascular density. In the original immunohistochemical stained sections, brown staining indicated a positive signal for CD34 staining. (A) Shown are the black and white pictures in 200× fold magnification. The numbers of positive signals in each CD34 stained picture are counted and are shown in the right lower corner of each panel. (B) The averages and standard deviations of 4 different fields that show the most abundant microvascular density are plotted in a histogram. The sections from kidney cannot be scored due to the fact that all vessels around renal tubules are fused into a large network in the picture.
After mice were sacrificed, major organs and tumors were dissected and fixed in 10% formalin. Tissues were embedded in paraffin and sections were stained with H & E, and with antibody against CD34 for quantification of microvascular density. The scoring of microvascular density was based on the methods described by Weidner et al. by counting the CD34-positive signals in a photo frame of 200× magnification using Nikon ECLIPSE E800M microscope equipped with a Diagnostic Instruments Spot RT CCD camera.
We took tissues that were studied with DCE-MRI to investigate the vascular density of tumor and correlate with the results from DCE-MRI-derived vascular perfusion studies. We particularly examined sections from heart and brain, where the toxicity of colchicine site inhibitors was observed. Tissue sections were stained with standard H & E and anti-CD34 (an endothelial marker) antibody by immunohistochemistry staining. […] There was also no histological difference in tumor either. We then used anti-CD34 staining to score microvascular density in tumor and various normal organs (54, 55). The results are indicated at the right lower corner of each panel except kidney, which cannot be scored due to fusion of the capillary network rather than discrete dots or tubes in appearance.

[2] = system: UCI101 tumor xenografts; test: Tumor necrosis in H&E sections three days after treatment; conditions: tirapazamine 60 mg/kg ip, 60 min later stilbene 5c 50 mg/kg ip; sacrificed three days later
Protocol: Mice were sacrificed three days later and tumors were harvested for H&E section. […] The portion of tumor that stained darker is viable, whereas the portion in lighter color is the necrotic area.
After 60 min, stilbene 5c was administered intraperitoneally at 50 mg/kg, which has been established to be capable of inducing profound tumor hypoxia within minutes (FIG. 3). […] Mice were then sacrificed three days later. Tumors were harvested and the center portion of tumor was sliced and analyzed with histological section and H&E staining.

[3] = system: UCI-101 tumor xenografts; test: Tumor xenograft size after multiple dosing (days 8, 10, 12); assay type: in vivo, nude mice; conditions: ip on days 8, 10 and 12; stilbene 5c 50 mg/kg, tirapazamine 60 mg/kg; day 14; 6 mice per group
Protocol: The long and short axes of tumor were measured to calculate tumor size and plotted against days. Each treatment group contains 6 mice.
Mice were then sacrificed at day 14. The long and short axes of tumors were measured to calculate tumor size and plotted against days. Each treatment group contains 6 mice.
Tumor cell lines used in this study include UCI-101 ovarian cancer cells and Hep3B hepatocellular carcinoma cells. Cells are grown in IMEM and DMEM, respectively, supplemented with 10% fetal bovine serum, glutamine, and penicillium/streptomycin in 5% CO2 humidified environment. When cells were grown to 80% confluent, cells were harvested with 1% trypsin and washed with phosphate-buffered saline three times before injected subcutaneously into nude mice. For mouse xenograft studies, 2×10^6 tumor cells were injected in the back subcutaneously. Nude mice were purchased from NCI Development Therapeutic Program as described. Tumor size was monitored by long and short axes (a and b, respectively) by a caliber and tumor volume was calculated by the formula ab^2/2. […] Treatment with AAA bevacizumab was done by tail vein injection at a dose of 10 mg/kg.
Next we measured the size of tumor xenografts after multiple dosing. Nude mice were injected subcutaneously with UCI-101 cells and tumor became visible after day 7. […] Tumor xenografts were measured and sizes are plotted in FIG. 7.

[4] = system: UCI-101 tumor xenograft; test: Tumor growth, stilbene 5c with or without bevacizumab; assay type: in vivo, nude mice
Protocol: FIG. 4. Efficacy of stilbene 5c in vivo and enhanced effect by bevacizumab. Nude mice were injected with UCI-101 cells subcutaneously and mice are treated with stilbene 5c at 20 mg/kg/day Monday-Friday with or without bevacizumab 10 mg/kg twice a week. Tumor volume was calculated by the long and short axes. Each group contains 8 mice and the average tumor volumes and standard deviations were plotted against days.
Tumor cell lines used in this study include UCI-101 ovarian cancer cells and Hep3B hepatocellular carcinoma cells. Cells are grown in IMEM and DMEM, respectively, supplemented with 10% fetal bovine serum, glutamine, and penicillium/streptomycin in 5% CO2 humidified environment. When cells were grown to 80% confluent, cells were harvested with 1% trypsin and washed with phosphate-buffered saline three times before injected subcutaneously into nude mice. For mouse xenograft studies, 2×10^6 tumor cells were injected in the back subcutaneously. Nude mice were purchased from NCI Development Therapeutic Program as described. Tumor size was monitored by long and short axes (a and b, respectively) by a caliber and tumor volume was calculated by the formula ab^2/2. […]. Treatment with AAA bevacizumab was done by tail vein injection at a dose of 10 mg/kg.
Next we used ovarian cancer UCI101 cells to study the in vivo efficacy of stilbene 5c We first administered stilbene 5c with intraperitoneal injection at 25 mg/kg three times a week. Tumor volume was calculated by measuring the long and short axes. […] The failure could be due to the possibility that intermittent dosing leaves a viable rim of tumor, which survives the treatment of VDAs by getting nutritional and blood support from surrounding normal vasculature. When treatment with VDAs is stopped, the viable rim of tumor grows quickly. Tumor vasculature recovers quickly by recruitment of the mobilized endothelial progenitor cells. Based on this rationale, we combined stilbene 5c with bevacizumab, which was used to neutralize VEGF secreted by UCI-101 tumor cells. […]

COc1cc(/C=C\c2ccc(OC)c(N)c2)cc(OC)c1 [stilbene 5c, cis-3, 4′, 5-trimethoxy-3′-aminostilbene]
decrease of tumor vascular density (CD34) ([1]; 50 mg/kg intraperitoneally, 4 hours after injection, vs 10% DMSO): ~4 fold
H & E staining changes in major organs ([1]; after stilbene 5c treatment): did not show any significant changes
microvascular density of tumor decreased to (CD34) ([1]; after stilbene 5c treatment): nearly one fourth
microvascular density of normal organs (heart, liver, kidney, brain) ([1]; after stilbene 5c treatment 50 mg/kg intraperitoneally): does not change
area of tumor necrosis (H&E, qualitative) [2]: very small areas of tumor necrosis
size of tumor compared with the control [3]: about 50%
difference in tumor growth between control and treated mice ([4]; intraperitoneal 25 mg/kg three times a week): did not detect any difference
tumor growth suppression ([4]; stilbene 5c 20 mg/kg/day Monday to Friday for two weeks, bevacizumab 10 mg/kg twice a week for 5 doses): about 45%
